# Measurements taken from PubChem BioAssay (NCI).
#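 96-well plates; 48 h exposure; 5 concentrations. Endpoints by linear interpolation between flanking doses. Not reached: highest tested concentration assigned. TGI is the concentration that stops growth completely.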
# Columns and labels:
# Assay in all cases: NCI anticancer screen, dose series, 48 h
# ACHN renal = system: ACHN renal
# NCI-H23 lung = system: NCI-H23 lung
# SK-MEL-2 melanoma = system: SK-MEL-2 melanoma
# HCC-2998 colon = system: HCC-2998 colon
# SK-OV-3 ovarian = system: SK-OV-3 ovarian
# NCI-H522 lung = system: NCI-H522 lung
# UACC-62 melanoma = system: UACC-62 melanoma
# SF-539 CNS = system: SF-539 CNS
# HL-60(TB) leukemia = system: HL-60(TB) leukemia
# NCI/ADR-RES ovarian = system: NCI/ADR-RES ovarian
SMILES,TGI (ACHN renal),TGI (NCI-H23 lung),TGI (SK-MEL-2 melanoma),TGI (HCC-2998 colon),TGI (SK-OV-3 ovarian),TGI (NCI-H522 lung),TGI (UACC-62 melanoma),TGI (SF-539 CNS),TGI (HL-60(TB) leukemia),TGI (NCI/ADR-RES ovarian)
O=Cc1cc(O)c(O)c(O)c1-c1c(C=O)cc(O)c(O)c1O,> 100 µM,> 100 µM,> 100 µM,> 100 µM,> 100 µM,> 100 µM,> 100 µM,> 100 µM,> 100 µM,
C[C@H](NC(=O)OC1C2C=CC(O)C1CC2)c1ccccc1 (stereo partly specified),> 100 µM,> 100 µM,> 100 µM,> 100 µM,> 100 µM,> 100 µM,> 100 µM,> 100 µM,> 100 µM,
CC(=O)OC(C)(C)C1CCC(C)(C(O)COc2ccc(CCNC(=O)c3ccccc3)cc2)O1 (stereo unspecified),> 100 µM,> 100 µM,> 100 µM,,> 100 µM,> 100 µM,> 100 µM,> 100 µM,67.8 µM,
CCCCc1cc2c(cc1O)CCC1C2CC[C@@]2(C)C1CC[C@@H]2O (stereo partly specified),29.7 µM,41.3 µM,38.1 µM,50.9 µM,37.1 µM,43.7 µM,29.5 µM,59.3 µM,,38.5 µM
CC1(C)COC(c2cccc(C3=NC(C)(C)CO3)c2)=N1,> 100 µM,> 100 µM,> 100 µM,> 100 µM,,,> 100 µM,> 100 µM,,> 100 µM
Cc1cc2nc3c(C#N)c(-c4ccccc4)/c(=C\Nc4cccc(C(F)(F)F)c4)c(=O)n3c2cc1C,> 100 µM,> 100 µM,> 100 µM,> 100 µM,> 100 µM,93.7 µM,,> 100 µM,,> 100 µM
COC(=O)CP1(=O)OC2C(C3CCC2(C)C3(C)C)N1c1cc(C(F)(F)F)cc(C(F)(F)F)c1 (stereo unspecified),> 100 µM,86.3 µM,46.4 µM,55.2 µM,80.5 µM,,> 100 µM,45.8 µM,,55.9 µM
S=C1c2cc(Cl)ccc2NC(=NC2CCCC2)C2CSCN12 (stereo unspecified),> 100 µM,> 100 µM,> 100 µM,> 100 µM,> 100 µM,> 100 µM,> 100 µM,> 100 µM,,> 100 µM
NC12c3c4cccc3Oc3cccc(c31)Oc1cccc(c12)O4,> 50 µM,> 50 µM,> 50 µM,,> 50 µM,> 50 µM,> 50 µM,> 50 µM,> 50 µM,> 50 µM
COc1cccc(-n2nnc3c(N)nc(N)nc32)c1,> 100 µM,76.3 µM,> 100 µM,,> 100 µM,> 100 µM,> 100 µM,> 100 µM,> 100 µM,> 100 µM
CC(=O)OC1COC(N2C(=O)C(=O)c3cc(Br)c([N+](=O)[O-])cc32)C(OC(C)=O)C1OC(C)=O (stereo unspecified),> 100 µM,> 100 µM,> 100 µM,> 100 µM,> 100 µM,> 100 µM,> 100 µM,> 100 µM,> 100 µM,
CCOC(=O)[C@H]1Nc2ccc(O)cc2C2c3ccccc3CC21 (stereo partly specified),> 100 µM,> 100 µM,> 100 µM,> 100 µM,,> 100 µM,> 100 µM,> 100 µM,,
